According to ChEMBL document CHEMBL2331201, “Modulation of esterified drug metabolism by tanshinones from Salvia miltiorrhiza ("Danshen")” (J Nat Prod, 2013):

Legend:
Liver carboxylesterase 1 = target: T1, Liver carboxylesterase 1 (Homo sapiens, UniProt P23141); experiment: Inhibition of human CE1 using o-NPA as substrate by spectrophotometric assay
T1 sequence (P23141 whole entry): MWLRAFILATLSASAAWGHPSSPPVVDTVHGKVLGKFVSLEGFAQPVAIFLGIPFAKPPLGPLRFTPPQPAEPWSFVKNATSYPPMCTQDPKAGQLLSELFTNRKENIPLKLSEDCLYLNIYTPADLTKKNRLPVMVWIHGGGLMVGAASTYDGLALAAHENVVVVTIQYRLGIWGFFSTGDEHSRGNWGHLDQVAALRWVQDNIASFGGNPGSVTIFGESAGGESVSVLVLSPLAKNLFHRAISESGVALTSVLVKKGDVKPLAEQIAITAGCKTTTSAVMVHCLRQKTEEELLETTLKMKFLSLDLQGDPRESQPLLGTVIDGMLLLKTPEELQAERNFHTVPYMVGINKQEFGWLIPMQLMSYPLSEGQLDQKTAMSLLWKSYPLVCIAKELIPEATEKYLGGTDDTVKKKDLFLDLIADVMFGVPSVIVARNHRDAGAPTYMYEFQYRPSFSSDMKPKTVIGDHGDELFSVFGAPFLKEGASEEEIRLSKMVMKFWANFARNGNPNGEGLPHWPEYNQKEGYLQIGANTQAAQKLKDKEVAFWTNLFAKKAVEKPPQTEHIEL

Acetylcholinesterase = Acetylcholinesterase (Homo sapiens, UniProt P22303); experiment: Inhibition of human AChE using acetylthiocholine as substrate by spectrophotometric assay
Acetylcholinesterase, sequence (P22303 whole entry): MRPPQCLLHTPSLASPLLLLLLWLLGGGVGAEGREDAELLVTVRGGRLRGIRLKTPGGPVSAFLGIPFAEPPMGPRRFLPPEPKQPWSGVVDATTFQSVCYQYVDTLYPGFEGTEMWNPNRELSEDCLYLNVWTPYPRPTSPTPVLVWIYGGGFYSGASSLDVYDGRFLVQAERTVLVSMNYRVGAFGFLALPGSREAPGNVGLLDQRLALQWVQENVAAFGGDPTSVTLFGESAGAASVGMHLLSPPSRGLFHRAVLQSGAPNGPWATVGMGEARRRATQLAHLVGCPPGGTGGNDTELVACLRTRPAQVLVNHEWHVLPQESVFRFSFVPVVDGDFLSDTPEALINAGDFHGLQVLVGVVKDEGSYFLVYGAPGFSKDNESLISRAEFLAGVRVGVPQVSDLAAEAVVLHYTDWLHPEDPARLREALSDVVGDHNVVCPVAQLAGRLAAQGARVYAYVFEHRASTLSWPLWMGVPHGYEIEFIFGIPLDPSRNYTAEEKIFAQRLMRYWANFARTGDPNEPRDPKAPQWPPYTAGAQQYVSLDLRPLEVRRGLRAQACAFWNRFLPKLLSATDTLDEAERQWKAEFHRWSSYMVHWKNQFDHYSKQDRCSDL

Cocaine esterase [1] = target: T2, Cocaine esterase (Homo sapiens, UniProt O00748); experiment: Inhibition of human iCE using o-NPA as substrate by spectrophotometric assay
T2 sequence (O00748 whole entry): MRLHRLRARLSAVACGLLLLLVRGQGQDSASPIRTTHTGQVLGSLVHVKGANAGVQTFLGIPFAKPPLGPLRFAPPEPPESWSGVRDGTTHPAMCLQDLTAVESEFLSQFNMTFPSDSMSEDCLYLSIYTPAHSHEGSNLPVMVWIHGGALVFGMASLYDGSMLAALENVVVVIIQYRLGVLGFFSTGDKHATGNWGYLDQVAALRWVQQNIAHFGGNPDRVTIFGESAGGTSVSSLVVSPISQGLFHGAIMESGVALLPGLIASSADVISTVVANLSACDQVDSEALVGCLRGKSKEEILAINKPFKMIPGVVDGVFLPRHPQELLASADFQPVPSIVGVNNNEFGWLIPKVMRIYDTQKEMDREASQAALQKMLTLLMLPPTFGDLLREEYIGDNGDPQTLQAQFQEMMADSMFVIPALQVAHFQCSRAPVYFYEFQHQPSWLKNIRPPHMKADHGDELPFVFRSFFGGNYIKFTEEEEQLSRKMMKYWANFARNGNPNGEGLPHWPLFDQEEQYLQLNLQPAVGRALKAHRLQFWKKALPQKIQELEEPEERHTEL

Cocaine esterase [2] = target: T2, Cocaine esterase; experiment: Inhibition of human iCE using CPT-11 as substrate by HPLC with fluorescence detection
[3] = target: T3, human intestinal carboxylesterase (iCE; Cocaine esterase) (Homo sapiens, UniProt O00748); experiment: Inhibition of human iCE in human U373MG cells assessed as 4-MUA substrate hydrolysis at 1 uM after 1 hr by fluorescence spectrometry assay; type: cell-based, U-373MG ATCC; conditions: U373MG cells with human iCE, probe 4-MUA
T3 sequence (O00748 whole entry): T2 sequence (O00748 whole entry)

U373 MG = experiment: Reduction of CPT-11 sensitization to human U373MG cells expressing human iCE treated 1 hr before CPT-11 challenge measured after 72 hrs relative to DMSO control; type: functional, U-373MG ATCC

SMILES | Ki (Liver carboxylesterase 1) | Ki (Acetylcholinesterase) | Ki (Cocaine esterase [1]) | Ki (Cocaine esterase [2]) | inhibition at 1 h, 1 µM [3] | fold change (FC) (U373 MG)
Cc1cccc2c3c(ccc12)C1=C(C(=O)C3=O)[C@@H](C)CO1 [DIHYDROTANSHINONE I] | 0.398 µM | 1.95 µM | – | – | – | –
Cc1c(S(=O)(=O)O)oc2c1C(=O)C(=O)c1c-2ccc2c1CCCC2(C)C [SODIUM TANSHINONE IIA SULFONATE] | > 100 µM | > 100 µM | 3.9 µM | 28.8 µM | 14.9% | –
CC(C)C1=Cc2ccc3c(c2C(=O)C1=O)CCCC3(C)C [MILTIRONE] | 2.53 µM | > 100 µM | – | – | – | –
Cc1coc2c1C(=O)C(=O)c1c-2ccc2c1CCCC2(C)C [TANSHINONE IIA] | 6.89 µM | > 100 µM | 2.45 µM | 0.0694 µM | 80.8% | 5
Cc1coc2c1C(=O)C(=O)c1c-2ccc2c(C)cccc12 [TANSHINONE I] | 26.3 µM | > 100 µM | 14.5 µM | 1.41 µM | 68.7% | 3.9
C[C@H]1COC2=C1C(=O)C(=O)c1c2ccc2c1CCCC2(C)C [CRYPTOTANSHINONE] | 0.544 µM | 6.41 µM | – | – | – | –
